Assay results as given in ChEMBL document CHEMBL4823289, “Conformational-Analysis-Guided Discovery of 2,3-Disubstituted Pyridine IDO1 Inhibitors” (ACS Med Chem Lett, 2021).
pIC50: −log10 of the molar value.

What was measured:
[1] = AUC in cynomolgus monkey at 5 mg/kg, po; type: ADME, organism-based, Macaca fascicularis; parameters: dose 5 mg/kg; details: in vivo
[2] = AUC (0 to 24 hrs) in human SK-OV-3 cells xenografted in nu/nu mouse xenograft model measured in tumor at 60 mg/kg, po QD; type: ADME, organism-based; parameters: time < 24 hr, route oral, dose 60 mg/kg
Cytochrome P450 (CYP) [3] = assay: Metabolic stability assessed as mouse CYP-mediated metabolism by measuring half life; type: ADME
[4] = AUC in mouse at 10 mg/kg, po; type: ADME, organism-based; parameters: dose 10 mg/kg; details: in vivo
[5] = Clearance in dog at 1 mg/kg, iv; type: ADME, organism-based, Canis lupus familiaris; details: in vivo
[6] = Volume of steady state distribution in cynomolgus monkey at 1 mg/kg, iv; type: ADME, organism-based, Macaca fascicularis; details: in vivo, read-out: Vdss
[7] = target: Voltage-gated inwardly rectifying potassium channel KCNH2 (Homo sapiens, UniProt Q12809); assay: Inhibition of hERG (unknown origin)
[8] = AUC in dog at 1 mg/kg, iv; type: ADME, organism-based, Canis lupus familiaris; parameters: dose 1 mg/kg; details: in vivo
[9] = Drug metabolism in human hepatocytes assessed as demethylated metabolite formation; type: ADME, cell-based, Hepatocyte
[10] = Apparent permeability of the compound at pH 7.4 by PAMPA; type: ADME
Cytochrome P450 (CYP) [11] = target: Cytochrome P450 (CYP) (Homo sapiens, UniProt P04798+P05177+P05181+P08684+P10632+P10635+P11509+P11712+P13584+P20813+P20815+P20853+P24462+P24903+P33260+P33261+P51589+P78329+P98187+Q02928+Q08477+Q16678+Q16696+Q5TCH4+Q6VVX0+Q7Z449+Q8TAV3+Q96SQ9+Q9HB55); assay: Metabolic stability assessed as human CYP-mediated metabolism by measuring half life; type: ADME, protein assay
[12] = target: Indoleamine 2,3-dioxygenase 1 (Mus musculus, UniProt P28776); assay: Inhibition of IDO1 in IFNgamma-stimulated mouse M109 cells preincubated for 2 hrs followed by recombinant murine IFNgamma stimulation and measured after 18 hrs by fluorescence based microplate reader assay; type: cell-based
[13] = AUC in mouse at 1 mg/kg, iv; type: ADME, organism-based; parameters: dose 1 mg/kg; details: in vivo
[14] = Volume of steady state distribution in rat at 0.5 mg/kg, iv; type: ADME, organism-based; details: in vivo, read-out: Vdss
[15] = Half life in dog at 1 mg/kg, iv; type: ADME, organism-based, Canis lupus familiaris; details: in vivo
Cytochrome P450 (CYP) [16] = assay: Metabolic stability assessed as cynomolgus monkey CYP-mediated metabolism by measuring half life; type: ADME, Macaca fascicularis
[17] = AUC in rat at 0.5 mg/kg, iv; type: ADME, organism-based; parameters: dose 0.5 mg/kg; details: in vivo
[18] = Metabolic stability in rat liver microsomes assessed as parent compound remaining at 0.5 uM after 10 mins incubation by LC-MS/MS analysis relative to control; type: ADME, Microsome; details: read-out: Activity
[19] = Apparent permeability across apical to basolateral side in human Caco-2 cells; type: ADME, cell-based
[20] = Drug metabolism in cynomolgus monkey hepatocytes assessed as demethylated metabolite formation; type: ADME, cell-based, Macaca fascicularis, Hepatocyte
[21] = Metabolic stability in human liver microsomes assessed as parent compound remaining at 0.5 uM after 10 mins incubation by LC-MS/MS analysis relative to control; type: ADME, Microsome; details: read-out: Activity
[22] = Half life in cynomolgus monkey at 1 mg/kg, iv; type: ADME, organism-based, Macaca fascicularis; details: in vivo
[23] = Half life in mouse at 1 mg/kg, iv; type: ADME, organism-based; details: in vivo
[24] = AUC (0 to 24 hrs) in human SK-OV-3 cells xenografted in nu/nu mouse xenograft model measured in tumor at 120 mg/kg, po QD; type: ADME, organism-based; parameters: time < 24 hr, route oral, dose 120 mg/kg
[25] = Oral bioavailability in mouse at 10 mg/kg; type: ADME, organism-based; details: in vivo
[26] = AUC in rat at 10 mg/kg, po; type: ADME, organism-based; parameters: dose 10 mg/kg; details: in vivo
[27] = AUC in dog at 5 mg/kg, po; type: ADME, organism-based, Canis lupus familiaris; parameters: dose 5 mg/kg; details: in vivo
Cytochrome P450 (CYP) [28] = assay: Metabolic stability assessed as dog CYP-mediated metabolism by measuring half life; type: ADME, Canis lupus familiaris
Cytochrome P450 2C8 = target: T1, Cytochrome P450 2C8 (Homo sapiens, UniProt P10632); assay: Inhibition of human CYP2C8
T1 sequence (P10632 whole entry): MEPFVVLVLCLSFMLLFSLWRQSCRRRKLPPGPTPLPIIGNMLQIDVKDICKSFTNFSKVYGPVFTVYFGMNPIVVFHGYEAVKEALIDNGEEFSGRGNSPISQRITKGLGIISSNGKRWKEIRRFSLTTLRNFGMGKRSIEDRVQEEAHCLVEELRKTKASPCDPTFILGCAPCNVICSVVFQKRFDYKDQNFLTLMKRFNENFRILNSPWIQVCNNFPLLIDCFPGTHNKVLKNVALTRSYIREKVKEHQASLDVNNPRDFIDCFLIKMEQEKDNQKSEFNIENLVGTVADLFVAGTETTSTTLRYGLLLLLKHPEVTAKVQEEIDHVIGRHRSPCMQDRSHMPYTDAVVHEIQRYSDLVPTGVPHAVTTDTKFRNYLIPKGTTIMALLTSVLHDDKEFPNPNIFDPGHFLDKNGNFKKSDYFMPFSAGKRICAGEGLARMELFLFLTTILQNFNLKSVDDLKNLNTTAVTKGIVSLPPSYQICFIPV

[29] = Clearance in rat at 0.5 mg/kg, iv; type: ADME, organism-based; details: in vivo
[30] = tested on: UDP-glucuronosyltransferases (UGT); assay: Metabolic stability assessed as rat UGT-mediated metabolism by measuring half life; type: ADME
[31] = Oral bioavailability in cynomolgus monkey at 5 mg/kg; type: ADME, organism-based, Macaca fascicularis; details: in vivo
Cytochrome P450 2C9 = Cytochrome P450 2C9 (Homo sapiens, UniProt P11712); assay: Inhibition of human CYP2C9
[32] = tested on: UDP-glucuronosyltransferases (UGT); assay: Metabolic stability assessed as mouse UGT-mediated metabolism by measuring half life; type: ADME
[33] = Clearance in mouse at 1 mg/kg, iv; type: ADME, organism-based; details: in vivo
[34] = AUC in cynomolgus monkey at 1 mg/kg, iv; type: ADME, organism-based, Macaca fascicularis; parameters: dose 1 mg/kg; details: in vivo
[35] = Metabolic stability in mouse liver microsomes assessed as parent compound remaining at 0.5 uM after 10 mins incubation by LC-MS/MS analysis relative to control; type: ADME, Microsome; details: read-out: Activity
Cytochrome P450 (CYP) [36] = assay: Metabolic stability assessed as rat CYP-mediated metabolism by measuring half life; type: ADME
[37] = Drug metabolism in dog hepatocytes assessed as demethylated metabolite formation; type: ADME, cell-based, Canis lupus familiaris, Hepatocyte
Cytochrome P450 2C19 = Cytochrome P450 2C19 (Homo sapiens, UniProt P33261); assay: Inhibition of human CYP2C19
[38] = AUC (0 to 24 hrs) in human SK-OV-3 cells xenografted in nu/nu mouse xenograft model measured in tumor at 20 mg/kg, po QD; type: ADME, organism-based; parameters: time < 24 hr, route oral, dose 20 mg/kg
[39] = tested on: UDP-glucuronosyltransferases (UGT); assay: Metabolic stability assessed as cynomolgus monkey UGT-mediated metabolism by measuring half life; type: ADME, Macaca fascicularis
[40] = Oral bioavailability in rat at 10 mg/kg; type: ADME, organism-based; details: in vivo
[41] = Drug metabolism in rat hepatocytes assessed as demethylated metabolite formation; type: ADME, cell-based, Hepatocyte
[42] = AUC (0 to 24 hrs) in nu/nu mouse xenograft model xenografted with human SK-OV-3 cells measured in tumor at 180 mg/kg, po QD; type: ADME, organism-based; parameters: time < 24 hr, route oral, dose 180 mg/kg
[43] = tested on: UDP-glucuronosyltransferases (UGT); assay: Metabolic stability assessed as dog UGT-mediated metabolism by measuring half life; type: ADME, Canis lupus familiaris
[44] = Clearance in cynomolgus monkey at 1 mg/kg, iv; type: ADME, organism-based, Macaca fascicularis; details: in vivo
[45] = target: T2, Indoleamine 2,3-dioxygenase 1 (Homo sapiens, UniProt P14902); assay: Inhibition of IDO1 in IFNgamma-stimulated human HeLa cells preincubated for 2 hrs followed by recombinant human IFNgamma stimulation and measured after 18 hrs by fluorescence based microplate reader assay
[46] = Volume of steady state distribution in mouse at 1 mg/kg, iv; type: ADME, organism-based; details: in vivo, read-out: Vdss
[47] = Apparent permeability across basolateral to apical side in human Caco-2 cells; type: ADME, cell-based
[48] = Oral bioavailability in dog at 5 mg/kg; type: ADME, organism-based, Canis lupus familiaris; details: in vivo
[49] = Half life in rat at 0.5 mg/kg, iv; type: ADME, organism-based; details: in vivo
[50] = Volume of steady state distribution in dog at 1 mg/kg, iv; type: ADME, organism-based, Canis lupus familiaris; details: in vivo, read-out: Vdss
[51] = target: T2, Indoleamine 2,3-dioxygenase 1; assay: Inhibition of IDO1 in IFNgamma/LPS-stimulated human whole blood preincubated for 4 hrs followed by IFNgamma/LPS stimulation and incubated for 18 hrs by Rapid-fire mass spectrometry analysis; type: tissue-based
[52] = target: UDP-glucuronosyltransferases (UGT) (Homo sapiens, UniProt O60656+O75310+O75795+P06133+P0DTE4+P0DTE5+P16662+P19224+P22309+P22310+P35503+P35504+P36537+P54855+Q6UWM9+Q9BY64+Q9HAW7+Q9HAW8+Q9HAW9); assay: Metabolic stability assessed as human UGT-mediated metabolism by measuring half life; type: ADME, protein assay
hERG (KCNH2) = hERG (KCNH2) (Homo sapiens, UniProt Q12809); assay: Inhibition of hERG (unknown origin) at 30 uM relative to control
Chain of hERG (KCNH2) (Q12809 whole entry): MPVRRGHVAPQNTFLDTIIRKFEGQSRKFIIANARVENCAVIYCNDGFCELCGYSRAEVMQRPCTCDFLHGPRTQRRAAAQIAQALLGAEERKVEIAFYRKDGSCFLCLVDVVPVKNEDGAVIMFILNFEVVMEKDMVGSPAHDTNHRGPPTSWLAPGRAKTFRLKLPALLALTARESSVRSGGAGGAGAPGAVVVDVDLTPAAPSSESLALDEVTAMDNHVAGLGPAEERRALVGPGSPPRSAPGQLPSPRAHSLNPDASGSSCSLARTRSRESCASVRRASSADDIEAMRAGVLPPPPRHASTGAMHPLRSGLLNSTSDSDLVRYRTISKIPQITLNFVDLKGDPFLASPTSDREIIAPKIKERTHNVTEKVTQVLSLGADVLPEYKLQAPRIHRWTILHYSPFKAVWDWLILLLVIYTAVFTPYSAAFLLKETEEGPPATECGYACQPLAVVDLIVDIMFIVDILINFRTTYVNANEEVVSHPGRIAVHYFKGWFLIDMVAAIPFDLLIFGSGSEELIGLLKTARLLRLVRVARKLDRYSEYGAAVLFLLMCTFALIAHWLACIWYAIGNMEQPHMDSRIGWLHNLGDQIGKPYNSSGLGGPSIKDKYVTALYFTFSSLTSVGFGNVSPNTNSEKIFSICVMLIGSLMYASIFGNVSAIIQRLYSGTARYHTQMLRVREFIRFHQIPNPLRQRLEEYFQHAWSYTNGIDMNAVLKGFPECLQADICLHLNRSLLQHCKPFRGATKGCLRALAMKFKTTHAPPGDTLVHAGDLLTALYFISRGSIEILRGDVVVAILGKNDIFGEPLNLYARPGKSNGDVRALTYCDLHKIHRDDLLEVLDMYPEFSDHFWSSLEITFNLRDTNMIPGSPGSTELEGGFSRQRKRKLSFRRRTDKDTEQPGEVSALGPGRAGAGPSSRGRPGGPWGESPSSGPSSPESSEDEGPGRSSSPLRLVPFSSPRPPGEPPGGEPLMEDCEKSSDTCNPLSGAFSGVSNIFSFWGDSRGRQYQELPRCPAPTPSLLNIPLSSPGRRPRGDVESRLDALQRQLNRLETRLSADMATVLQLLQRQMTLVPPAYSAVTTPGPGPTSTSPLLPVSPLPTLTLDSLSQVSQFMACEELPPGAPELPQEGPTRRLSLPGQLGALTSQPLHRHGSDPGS

T2 sequence (P14902 whole entry): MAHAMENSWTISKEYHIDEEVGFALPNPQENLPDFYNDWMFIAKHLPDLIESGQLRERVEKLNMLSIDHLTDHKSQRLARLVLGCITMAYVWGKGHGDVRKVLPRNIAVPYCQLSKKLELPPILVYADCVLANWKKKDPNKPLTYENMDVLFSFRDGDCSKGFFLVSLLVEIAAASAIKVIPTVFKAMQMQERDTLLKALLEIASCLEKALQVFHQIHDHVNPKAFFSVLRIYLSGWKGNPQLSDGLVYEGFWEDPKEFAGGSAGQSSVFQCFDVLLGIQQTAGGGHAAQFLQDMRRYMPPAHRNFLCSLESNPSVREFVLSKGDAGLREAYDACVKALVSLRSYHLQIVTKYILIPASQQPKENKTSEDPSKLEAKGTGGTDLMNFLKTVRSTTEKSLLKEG
Chain of Cytochrome P450 2C19 (P33261 whole entry): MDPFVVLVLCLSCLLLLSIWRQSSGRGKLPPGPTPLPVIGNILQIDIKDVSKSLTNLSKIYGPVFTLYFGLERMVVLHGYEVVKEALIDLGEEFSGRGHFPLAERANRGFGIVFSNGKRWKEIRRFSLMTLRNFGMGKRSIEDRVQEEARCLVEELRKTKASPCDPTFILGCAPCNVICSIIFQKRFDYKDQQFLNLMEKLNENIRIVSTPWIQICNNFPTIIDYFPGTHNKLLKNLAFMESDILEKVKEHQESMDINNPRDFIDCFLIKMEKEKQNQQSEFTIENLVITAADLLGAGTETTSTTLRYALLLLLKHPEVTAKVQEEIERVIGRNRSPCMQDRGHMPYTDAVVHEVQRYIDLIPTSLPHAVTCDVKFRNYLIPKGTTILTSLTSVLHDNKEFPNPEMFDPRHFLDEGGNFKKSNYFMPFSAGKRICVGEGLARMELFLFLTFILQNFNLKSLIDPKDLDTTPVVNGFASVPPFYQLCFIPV
Chain of Voltage-gated inwardly rectifying potassium channel KCNH2 (Q12809 whole entry): as the sequence (Q12809 whole entry) above
Chain of Indoleamine 2,3-dioxygenase 1 (Mus musculus, UniProt P28776) (P28776 whole entry): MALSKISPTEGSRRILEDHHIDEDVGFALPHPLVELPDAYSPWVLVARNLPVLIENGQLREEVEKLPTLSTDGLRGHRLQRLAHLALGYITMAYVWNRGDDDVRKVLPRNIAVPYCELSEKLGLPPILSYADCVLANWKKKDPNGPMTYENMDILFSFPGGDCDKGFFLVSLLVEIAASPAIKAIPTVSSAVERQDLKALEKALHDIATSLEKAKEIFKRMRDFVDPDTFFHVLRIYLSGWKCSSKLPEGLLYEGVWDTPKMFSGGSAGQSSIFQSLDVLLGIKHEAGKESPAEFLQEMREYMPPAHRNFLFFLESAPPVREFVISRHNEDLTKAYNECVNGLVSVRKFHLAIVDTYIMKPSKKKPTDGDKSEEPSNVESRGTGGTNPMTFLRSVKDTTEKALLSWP
Chain of Cytochrome P450 2C9 (P11712 whole entry): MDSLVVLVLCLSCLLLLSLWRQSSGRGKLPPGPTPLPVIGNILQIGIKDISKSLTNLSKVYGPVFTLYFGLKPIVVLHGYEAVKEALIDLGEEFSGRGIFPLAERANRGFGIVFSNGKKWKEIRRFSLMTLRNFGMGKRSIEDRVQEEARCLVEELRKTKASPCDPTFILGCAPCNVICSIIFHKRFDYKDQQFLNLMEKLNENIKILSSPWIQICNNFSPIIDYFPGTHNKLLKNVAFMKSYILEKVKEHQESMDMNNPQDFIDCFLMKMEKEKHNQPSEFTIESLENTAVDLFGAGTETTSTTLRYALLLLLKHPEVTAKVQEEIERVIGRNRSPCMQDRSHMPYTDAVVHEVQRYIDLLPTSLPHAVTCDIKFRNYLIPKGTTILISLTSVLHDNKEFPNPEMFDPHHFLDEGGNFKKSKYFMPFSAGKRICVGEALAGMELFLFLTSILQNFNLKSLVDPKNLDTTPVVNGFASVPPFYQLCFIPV

CC[C@@H](NC(=O)c1ccc(OC)nc1)[C@H]1CC[C@@H](c2ccnc(OC)c2C(F)F)CC1
AUC [1]: 0.029 µM·h
AUC at 24 h [2]: 9.2 µM·h
half-life (Cytochrome P450 (CYP) [3]): 0.183 h
AUC [4]: 3.9 µM·h
clearance [5]: 18 mL/min/kg
Vd [6]: 4.5 L/kg
pIC50 [7]: 4.76
AUC [8]: 2.3 µM·h
Drug metabolism [9]: Metabolite_Detected
Papp [10]: 107 ×10⁻⁶ cm/s
half-life (Cytochrome P450 (CYP) [11]): 0.533 h
pIC50 [12]: 7.85
AUC [13]: 1.2 µM·h
Vd [14]: 4 L/kg
half-life [15]: 14 h
half-life (Cytochrome P450 (CYP) [16]): 3 min
AUC [17]: 1.3 µM·h
remaining at 10 min, 0.5 µM [18]: 90%
Papp A→B [19]: 12.2 ×10⁻⁶ cm/s
Drug metabolism [20]: Metabolite_Detected
remaining at 10 min, 0.5 µM [21]: 87%
half-life [22]: 11 h
half-life [23]: 5 h
AUC at 24 h [24]: 13 µM·h
bioavailability [25]: 33%
AUC [26]: 8.7 µM·h
AUC [27]: 3.2 µM·h
half-life (Cytochrome P450 (CYP) [28]): 7 min
pIC50 (Cytochrome P450 2C8): 5.40
clearance [29]: 15 mL/min/kg
half-life [30]: > 2 h
F [31]: 4.5%
pIC50 (Cytochrome P450 2C9): 5.72
half-life [32]: > 2 h
clearance [33]: 33 mL/min/kg
AUC [34]: 1.3 µM·h
remaining at 10 min, 0.5 µM [35]: 60%
half-life (Cytochrome P450 (CYP) [36]): 0.333 h
Drug metabolism [37]: Metabolite_Detected
pIC50 (Cytochrome P450 2C19): 5.02
AUC at 24 h [38]: 7.9 µM·h
half-life [39]: > 2 h
bioavailability [40]: 34%
Drug metabolism [41]: Metabolite_Detected
AUC at 24 h [42]: 13 µM·h
half-life [43]: > 2 h
clearance [44]: 29 mL/min/kg
pIC50 [45]: 8.70
Vd [46]: 6.2 L/kg
Papp B→A [47]: 5.6 ×10⁻⁶ cm/s
bioavailability [48]: 28%
half-life [49]: 7.1 h
Vd [50]: 9 L/kg
pIC50 [51]: 8.64
half-life [52]: > 2 h
inhibition at 30 µM (hERG (KCNH2)): 61%
